Results reported in US20210284638A1 (Saint Louis University, priority 2018, published 2021).

Experiments:
Assay type in all cases: binding
[1] = molecular target: T1, Recombinant human integrin αVβ6 (Homo sapiens, UniProt P06756+P18564); test: Solid Phase Receptor Assay (SPRA) for αVβ6 function; settings: plate-bound human LAP
T1 construct: purchased R&D Systems 3817-AV

[2] = molecular target: T2, Recombinant human integrin α5β1 (Homo sapiens, UniProt P05556+P08648); test: Solid Phase Receptor Assay (SPRA) for α5β1 function; settings: plate-bound human fibronectin
T2 construct: purchased R&D Systems 3230-A5
T2 sequence (P08648 42-995 limits assumed): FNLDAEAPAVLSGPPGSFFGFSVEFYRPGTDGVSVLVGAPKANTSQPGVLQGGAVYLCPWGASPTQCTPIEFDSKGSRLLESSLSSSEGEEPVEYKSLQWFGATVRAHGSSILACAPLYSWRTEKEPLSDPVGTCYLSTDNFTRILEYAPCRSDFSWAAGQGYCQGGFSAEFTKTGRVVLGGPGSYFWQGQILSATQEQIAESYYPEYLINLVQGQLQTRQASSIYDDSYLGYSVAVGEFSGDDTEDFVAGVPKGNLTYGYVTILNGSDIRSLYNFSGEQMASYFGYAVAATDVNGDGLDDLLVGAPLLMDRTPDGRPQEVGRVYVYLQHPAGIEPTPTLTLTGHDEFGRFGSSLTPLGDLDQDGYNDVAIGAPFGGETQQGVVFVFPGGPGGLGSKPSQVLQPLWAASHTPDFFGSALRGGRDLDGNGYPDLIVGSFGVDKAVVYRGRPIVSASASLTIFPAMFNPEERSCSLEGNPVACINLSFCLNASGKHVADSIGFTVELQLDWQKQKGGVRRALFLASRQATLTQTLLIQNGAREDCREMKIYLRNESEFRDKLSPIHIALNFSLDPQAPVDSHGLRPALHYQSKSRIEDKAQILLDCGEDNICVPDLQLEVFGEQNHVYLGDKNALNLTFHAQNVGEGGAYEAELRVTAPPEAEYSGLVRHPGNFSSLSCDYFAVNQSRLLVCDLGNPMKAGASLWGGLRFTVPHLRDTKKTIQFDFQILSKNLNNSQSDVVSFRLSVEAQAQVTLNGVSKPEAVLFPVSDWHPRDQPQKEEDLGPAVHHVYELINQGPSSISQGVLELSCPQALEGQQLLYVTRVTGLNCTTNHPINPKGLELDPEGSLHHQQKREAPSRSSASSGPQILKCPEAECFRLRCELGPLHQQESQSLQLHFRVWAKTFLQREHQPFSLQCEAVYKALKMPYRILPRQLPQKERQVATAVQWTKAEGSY
T2 sequence (P05556 21-728 limits assumed): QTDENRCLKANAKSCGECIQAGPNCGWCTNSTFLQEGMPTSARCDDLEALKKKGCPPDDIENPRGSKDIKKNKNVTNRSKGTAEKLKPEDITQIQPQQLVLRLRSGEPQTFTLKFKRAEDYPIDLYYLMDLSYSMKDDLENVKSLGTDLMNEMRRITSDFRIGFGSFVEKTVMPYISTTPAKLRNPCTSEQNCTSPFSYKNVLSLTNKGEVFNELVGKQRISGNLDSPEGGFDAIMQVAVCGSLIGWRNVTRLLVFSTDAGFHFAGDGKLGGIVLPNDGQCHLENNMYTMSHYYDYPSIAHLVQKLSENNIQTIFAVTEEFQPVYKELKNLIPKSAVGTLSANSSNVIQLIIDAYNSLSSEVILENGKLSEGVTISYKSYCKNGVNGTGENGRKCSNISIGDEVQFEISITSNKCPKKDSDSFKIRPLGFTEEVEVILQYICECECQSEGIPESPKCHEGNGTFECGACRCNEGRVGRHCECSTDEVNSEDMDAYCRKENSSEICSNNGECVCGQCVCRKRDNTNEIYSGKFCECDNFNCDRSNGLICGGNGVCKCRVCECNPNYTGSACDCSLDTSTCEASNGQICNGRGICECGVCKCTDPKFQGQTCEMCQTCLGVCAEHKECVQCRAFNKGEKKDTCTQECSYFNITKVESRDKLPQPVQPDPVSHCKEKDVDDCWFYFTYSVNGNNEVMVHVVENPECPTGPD

[3] = molecular target: T3, Recombinant human integrin αVβ8 (Homo sapiens, UniProt P06756+P26012); test: Solid Phase Receptor Assay for αVβ8 function; settings: plate-bound human LAP; read-out: αVβ8 SPRA IC50
T3 construct: purchased R&D Systems 4135-AV
T3 sequence (P06756 31-992 limits assumed): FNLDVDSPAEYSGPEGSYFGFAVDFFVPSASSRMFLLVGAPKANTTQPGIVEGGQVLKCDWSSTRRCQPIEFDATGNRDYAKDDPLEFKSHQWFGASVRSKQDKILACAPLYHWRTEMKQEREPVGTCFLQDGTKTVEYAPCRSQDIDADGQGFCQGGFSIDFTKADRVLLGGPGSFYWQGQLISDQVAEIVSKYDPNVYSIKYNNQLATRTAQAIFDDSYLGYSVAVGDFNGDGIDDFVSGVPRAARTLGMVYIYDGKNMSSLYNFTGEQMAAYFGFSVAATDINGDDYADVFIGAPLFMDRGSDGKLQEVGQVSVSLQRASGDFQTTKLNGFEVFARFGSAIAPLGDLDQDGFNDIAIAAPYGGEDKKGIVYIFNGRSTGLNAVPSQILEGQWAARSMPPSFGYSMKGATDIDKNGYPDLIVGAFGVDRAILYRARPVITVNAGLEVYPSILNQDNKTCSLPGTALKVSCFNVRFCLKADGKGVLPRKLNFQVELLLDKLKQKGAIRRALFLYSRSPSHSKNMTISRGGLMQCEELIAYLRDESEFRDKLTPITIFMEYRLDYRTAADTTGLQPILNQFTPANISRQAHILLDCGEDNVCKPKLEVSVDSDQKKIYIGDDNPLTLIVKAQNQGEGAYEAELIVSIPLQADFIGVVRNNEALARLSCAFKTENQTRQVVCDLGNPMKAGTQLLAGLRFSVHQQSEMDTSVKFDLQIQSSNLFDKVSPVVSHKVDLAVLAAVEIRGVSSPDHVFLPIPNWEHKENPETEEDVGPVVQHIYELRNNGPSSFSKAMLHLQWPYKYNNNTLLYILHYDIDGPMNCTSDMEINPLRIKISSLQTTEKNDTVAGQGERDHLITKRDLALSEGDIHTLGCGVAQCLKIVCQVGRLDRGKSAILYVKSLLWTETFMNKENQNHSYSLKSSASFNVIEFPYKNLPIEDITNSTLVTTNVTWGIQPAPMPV
T3 sequence (P26012 43-684 limits assumed): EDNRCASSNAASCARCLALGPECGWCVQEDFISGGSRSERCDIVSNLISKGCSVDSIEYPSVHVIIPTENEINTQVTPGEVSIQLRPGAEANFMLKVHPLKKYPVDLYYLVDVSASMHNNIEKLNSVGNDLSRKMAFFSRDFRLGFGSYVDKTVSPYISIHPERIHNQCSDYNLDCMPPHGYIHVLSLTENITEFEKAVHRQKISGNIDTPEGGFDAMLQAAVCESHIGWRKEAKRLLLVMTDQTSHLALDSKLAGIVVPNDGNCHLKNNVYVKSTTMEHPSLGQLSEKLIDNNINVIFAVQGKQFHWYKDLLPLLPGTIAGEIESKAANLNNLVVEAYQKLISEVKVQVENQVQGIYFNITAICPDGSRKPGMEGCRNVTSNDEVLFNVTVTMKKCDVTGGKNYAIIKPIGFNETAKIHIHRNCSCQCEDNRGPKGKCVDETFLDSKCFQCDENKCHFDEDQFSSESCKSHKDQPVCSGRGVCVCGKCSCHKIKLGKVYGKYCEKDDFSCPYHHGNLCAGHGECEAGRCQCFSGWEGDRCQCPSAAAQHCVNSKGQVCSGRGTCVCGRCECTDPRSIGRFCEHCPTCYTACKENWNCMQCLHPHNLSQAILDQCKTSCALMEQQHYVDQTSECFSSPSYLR

[4] = molecular target: T4, Recombinant human integrin αVβ5 (Homo sapiens, UniProt P06756+P18084); test: Solid Phase Receptor Assay (SPRA) for αVβ5 function; settings: plate-bound human vitronectin
T4 construct: purchased R&D Systems 2528-AV
T4 sequence (P06756 31-992 limits assumed): as the sequence (P06756 31-992 limits assumed) above
T4 sequence (P18084 24-719 limits assumed): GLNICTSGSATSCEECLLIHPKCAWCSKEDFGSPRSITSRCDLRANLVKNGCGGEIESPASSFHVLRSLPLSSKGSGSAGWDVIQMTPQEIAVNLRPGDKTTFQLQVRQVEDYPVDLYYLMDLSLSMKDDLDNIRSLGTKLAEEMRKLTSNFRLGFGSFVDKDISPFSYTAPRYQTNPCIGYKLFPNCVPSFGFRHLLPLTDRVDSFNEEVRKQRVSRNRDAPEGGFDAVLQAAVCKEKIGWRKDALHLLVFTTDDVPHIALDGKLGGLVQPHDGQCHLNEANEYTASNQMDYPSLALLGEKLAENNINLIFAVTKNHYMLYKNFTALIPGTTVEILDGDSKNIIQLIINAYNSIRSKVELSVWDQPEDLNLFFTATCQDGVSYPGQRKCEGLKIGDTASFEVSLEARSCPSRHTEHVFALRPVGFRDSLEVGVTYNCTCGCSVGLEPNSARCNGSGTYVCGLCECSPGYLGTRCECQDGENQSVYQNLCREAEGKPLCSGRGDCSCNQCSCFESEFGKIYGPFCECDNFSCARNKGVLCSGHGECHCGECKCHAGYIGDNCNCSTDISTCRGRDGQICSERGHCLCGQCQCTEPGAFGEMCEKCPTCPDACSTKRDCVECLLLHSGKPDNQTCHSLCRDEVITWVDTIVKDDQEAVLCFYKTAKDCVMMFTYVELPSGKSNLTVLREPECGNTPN

T1 sequence (P06756 31-992 limits assumed): as the sequence (P06756 31-992 limits assumed) above
T1 sequence (P18564 22-707 limits assumed): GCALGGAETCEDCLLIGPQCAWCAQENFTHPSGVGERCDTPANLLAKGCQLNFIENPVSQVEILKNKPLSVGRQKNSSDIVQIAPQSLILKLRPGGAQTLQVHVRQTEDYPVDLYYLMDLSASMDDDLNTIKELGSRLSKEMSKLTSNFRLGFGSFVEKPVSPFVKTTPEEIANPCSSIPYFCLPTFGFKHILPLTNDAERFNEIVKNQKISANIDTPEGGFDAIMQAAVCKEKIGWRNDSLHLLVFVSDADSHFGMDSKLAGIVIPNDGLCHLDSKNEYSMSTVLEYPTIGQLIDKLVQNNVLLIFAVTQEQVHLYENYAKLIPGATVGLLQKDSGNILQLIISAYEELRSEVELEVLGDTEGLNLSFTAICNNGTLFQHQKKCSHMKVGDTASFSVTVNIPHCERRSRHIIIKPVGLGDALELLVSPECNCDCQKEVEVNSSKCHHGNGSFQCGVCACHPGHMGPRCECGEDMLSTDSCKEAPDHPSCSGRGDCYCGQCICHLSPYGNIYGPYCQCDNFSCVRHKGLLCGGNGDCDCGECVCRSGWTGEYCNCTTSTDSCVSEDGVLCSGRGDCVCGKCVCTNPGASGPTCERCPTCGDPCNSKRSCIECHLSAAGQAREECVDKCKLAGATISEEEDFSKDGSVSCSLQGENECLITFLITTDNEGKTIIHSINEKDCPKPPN

Row | Structure (SMILES) | IC50 [1] [nM] | IC50 [2] [nM] | IC50 [3] [nM] | IC50 [4] [nM]
1 | COc1ccc(C2CCOCC2)cc1C(CC(=O)O)Cc1csc(CCCc2ccc3c(n2)NCCC3)n1 (stereo not drawn) [Example 43, 3-(2-methoxy-5-(tetrahydro-2H-pyran-4-yl)phenyl)-4-(2-(3-(5,6,7,8-tetrahydro-1,8-naphthyridin-2-yl)propyl)thiazol-4-yl)butanoic acid] | 95 | 65 | 210 | 61
2 | COc1ccc(C(CC(=O)O)Cc2cc(OCCc3ccc4c(n3)NCCC4)n(C)n2)cc1F (stereo not drawn) [Example 44, 3-(3-fluoro-4-methoxyphenyl)-4-(1-methyl-5-(2-(5,6,7,8-tetrahydro-1,8-naphthyridin-2-yl)ethoxy)-1H-pyrazol-3-yl)butanoic acid] | 44 | 47 | 80 | 0.22
3 | COCC1(c2ccc(OC)c(C(CC(=O)O)Cc3cc(OCCc4ccc5c(n4)NCCC5)n(C)n3)c2)CCOCC1 (stereo not drawn) [Example 45, 3-(2-methoxy-5-(4-(methoxymethyl)tetrahydro-2H-pyran-4-yl)phenyl)-4-(1-methyl-5-(2-(5,6,7,8-tetrahydro-1,8-naphthyridin-2-yl)ethoxy)-1H-pyrazol-3-yl)butanoic acid] | 4100 | 13 | 1000 | 1200
4 | COc1ccc(C2CCOCC2)cc1C(CC(=O)O)Cc1cc(OCCc2ccc3c(n2)NCCC3)n(C)n1 (stereo not drawn) [Example 46, 3-(2-methoxy-5-(tetrahydro-2H-pyran-4-yl)phenyl)-4-(1-methyl-5-(2-(5,6,7,8-tetrahydro-1,8-naphthyridin-2-yl)ethoxy)-1H-pyrazol-3-yl)butanoic acid] | 260 | 16 | 250 | 87
5 | Cn1nc(C[C@@H](CC(=O)O)c2cc3c(c(C(C)(C)C)c2)OCO3)cc1OCCc1ccc2c(n1)NCCC2 [Example 47] | 15 | 6.2 | 34 | 0.067
6 | COCC1(c2ccc(OC)c([C@H](CC(=O)O)Cc3cc(OCCc4ccc5c(n4)NCCC5)n(C)n3)c2)CCOCC1 [Example 48, (S)-3-(2-methoxy-5-(4-(methoxymethyl)tetrahydro-2H-pyran-4-yl)phenyl)-4-(1-methyl-5-(2-(5,6,7,8-tetrahydro-1,8-naphthyridin-2-yl)ethoxy)-1H-pyrazol-3-yl)butanoic acid] | 2800 | 9.7 | 540 | 770
